pIC50: −log10 of the molar value. Calls of active or inactive are those of the source. The rule behind the calls is not given here.
What was measured:
[1] = target: T1, Cysteinyl leukotriene receptor 2 (Homo sapiens, UniProt Q9NS75); experiment: Antagonist activity against CysLT2 receptor (unknown origin) expressed in HEK293 cells assessed as inhibition of LTD4-induced calcium mobilization pre-incubated for 10 mins before LTD4 addition by Fluo-4 AM dye based fluorimetric assay; format: functional, cell-based
T1 sequence (Q9NS75 whole entry): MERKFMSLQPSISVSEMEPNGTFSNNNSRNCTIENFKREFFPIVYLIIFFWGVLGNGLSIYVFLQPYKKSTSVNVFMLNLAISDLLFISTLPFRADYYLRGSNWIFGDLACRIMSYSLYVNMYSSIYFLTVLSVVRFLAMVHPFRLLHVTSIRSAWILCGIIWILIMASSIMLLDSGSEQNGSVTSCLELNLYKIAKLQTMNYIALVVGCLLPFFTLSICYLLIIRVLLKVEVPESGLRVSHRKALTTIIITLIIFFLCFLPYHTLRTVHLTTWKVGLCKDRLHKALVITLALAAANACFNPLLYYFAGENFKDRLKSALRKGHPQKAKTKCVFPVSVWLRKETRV

[2] = target: T2, Cysteinyl leukotriene receptor 1 (Homo sapiens, UniProt Q9Y271); experiment: Antagonist activity against CysLT1 receptor (unknown origin) expressed in HEK293 cells assessed as inhibition of LTD4-induced calcium mobilization pre-incubated for 10 mins before LTD4 addition by Fluo-4 AM dye based fluorimetric assay; format: functional, cell-based
T2 sequence (Q9Y271 whole entry): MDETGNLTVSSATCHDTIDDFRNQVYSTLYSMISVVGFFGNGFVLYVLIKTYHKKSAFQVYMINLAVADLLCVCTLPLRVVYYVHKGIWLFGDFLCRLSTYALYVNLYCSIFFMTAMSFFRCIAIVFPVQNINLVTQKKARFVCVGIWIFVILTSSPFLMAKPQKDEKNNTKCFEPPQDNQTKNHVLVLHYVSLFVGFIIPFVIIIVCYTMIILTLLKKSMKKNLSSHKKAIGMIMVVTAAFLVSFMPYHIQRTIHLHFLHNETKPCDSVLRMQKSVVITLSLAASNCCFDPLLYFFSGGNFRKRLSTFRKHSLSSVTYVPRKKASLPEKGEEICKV

[3] = target: T3, Cysteinyl leukotriene receptor 1 (Mus musculus) (UniProt Q99JA4); settings: C57BL/6, at 1 µM
T3 sequence (whole entry): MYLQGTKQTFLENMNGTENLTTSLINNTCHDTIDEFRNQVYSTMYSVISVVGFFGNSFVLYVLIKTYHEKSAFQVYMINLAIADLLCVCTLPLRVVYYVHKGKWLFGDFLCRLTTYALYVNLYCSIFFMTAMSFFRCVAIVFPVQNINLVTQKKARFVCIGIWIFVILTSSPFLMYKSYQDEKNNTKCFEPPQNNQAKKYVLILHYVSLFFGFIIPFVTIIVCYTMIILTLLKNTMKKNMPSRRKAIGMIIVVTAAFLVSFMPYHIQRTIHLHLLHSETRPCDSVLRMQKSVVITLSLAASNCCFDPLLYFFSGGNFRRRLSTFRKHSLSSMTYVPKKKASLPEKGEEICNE

[4] = target: T3, Cysteinyl leukotriene receptor 1 (Mus musculus); experiment: (§1) Antagonist activity at LTD4 receptor in splenocytes isolated from MOG(35 to 55 residues) containing CFA immunized and pertussis toxin-induced C57BL/6 mouse experimental autoimmune encephalomyelitis model assessed as inhibition of LTD4-induced leukocyte chemotaxis at 100 nM after 1.5 hrs by flow cytometric analysis; format: cell-based
[5] = target: T3, Cysteinyl leukotriene receptor 1 (Mus musculus); experiment: as §1, with “10” for “100”; format: cell-based

Structure (SMILES)	pIC50 [1]	pIC50 [2]	inhibition [3]	inhibition [4]	inhibition [5]
COc1ccc2[nH]c(C(=O)O)c(/C=C/C(=O)Nc3cccc(/C=C/c4ccc5ccc(Cl)cc5n4)c3)c2c1	4.34	7.60	–	–	–
O=C(/C=C/c1c(C(=O)O)[nH]c2cc(Cl)cc(Cl)c12)OC1CCCCC1	< 4.00	< 4.00	–	–	–
O=C(/C=C/c1c(C(=O)O)[nH]c2cc(Cl)cc(Cl)c12)OCCCc1ccccc1	< 4.00	< 4.00	–	–	–
O=C(/C=C/c1c(C(=O)O)[nH]c2cc(Cl)cc(Cl)c12)OCC1CCCCC1	< 4.00	< 4.00	–	–	–
CC(C)(O)c1ccccc1CC[C@@H](SCC1(CC(=O)O)CC1)c1cccc(/C=C/c2ccc3ccc(Cl)cc3n2)c1	–	–	50%	–	–
O=C(/C=C/c1c(C(=O)O)[nH]c2cccc(Cl)c12)Nc1cccc(/C=C/c2ccc3ccc(Cl)cc3n2)c1	4.44	7.17	–	–	–
COc1cccc2c(/C=C/C(=O)Nc3cccc(/C=C/c4ccc5ccc(Cl)cc5n4)c3)c(C(=O)O)[nH]c12	4.82	8.23	–	> 50%	Active
O=C(/C=C/c1c(C(=O)O)[nH]c2cc(Cl)cc(Cl)c12)OCCCCc1ccccc1	< 4.00	< 4.00	–	–	–
O=C(/C=C/c1c(C(=O)O)[nH]c2ccccc12)Nc1cccc(/C=C/c2ccc3ccc(Cl)cc3n2)c1	4.24	8.05	–	> 50%	–
O=C(/C=C/c1c(C(=O)O)[nH]c2cc(F)cc(F)c12)Nc1cccc(/C=C/c2ccc3ccc(Cl)cc3n2)c1	4.12	7.42	–	–	–
O=C(/C=C/c1c(C(=O)O)[nH]c2ccccc12)OCc1cccc(/C=C/c2ccc3ccc(Cl)cc3n2)c1	< 4.00	6.92	–	–	–
O=C(/C=C/c1c(C(=O)O)[nH]c2ccc(Cl)cc12)Nc1cccc(/C=C/c2ccc3ccc(Cl)cc3n2)c1	< 4.00	7.77	–	–	–
O=C(/C=C/c1c(C(=O)O)[nH]c2cc(Cl)cc(Cl)c12)OCCc1ccccc1	< 4.00	< 4.00	–	–	–
COc1ccc2c(/C=C/C(=O)Nc3cccc(/C=C/c4ccc5ccc(Cl)cc5n4)c3)c(C(=O)O)[nH]c2c1	< 4.00	7.92	–	> 50%	–
O=C(CCc1c(C(=O)O)[nH]c2ccccc12)Nc1cccc(/C=C/c2ccc3ccc(Cl)cc3n2)c1	4.30	7.24	–	–	–
CC(C)CCCOC(=O)/C=C/c1c(C(=O)O)[nH]c2cc(Cl)cc(Cl)c12	< 4.00	< 4.00	–	–	–
O=C(O)c1ccc(OCCCc2ccc(OCCCCOc3ccccc3)cc2)c(C(=O)NC2CCCC(C(=O)O)C2)c1 (stereo unspecified)	–	< 5.60	–	–	–
N#CCCCCOC(=O)/C=C/c1c(C(=O)O)[nH]c2cc(Cl)cc(Cl)c12	< 4.00	< 4.00	–	–	–
O=C(/C=C/c1c(C(=O)O)[nH]c2ccc(F)cc12)Nc1cccc(/C=C/c2ccc3ccc(Cl)cc3n2)c1	4.34	8.11	–	> 50%	Active
O=C(/C=C/c1c(C(=O)O)[nH]c2cc(Cl)cc(Cl)c12)Oc1ccccc1	< 4.00	< 4.00	–	–	–
O=C(/C=C/c1c(C(=O)O)[nH]c2cc(Cl)cc(Cl)c12)Nc1cccc(/C=C/c2ccc3ccc(Cl)cc3n2)c1	< 4.00	6.54	–	–	–
CCCCCOC(=O)/C=C/c1c(C(=O)O)[nH]c2cc(Cl)cc(Cl)c12	< 4.00	< 4.00	–	–	–
O=C(/C=C/c1c(C(=O)O)[nH]c2c(Cl)cccc12)Nc1cccc(/C=C/c2ccc3ccc(Cl)cc3n2)c1	< 4.00	7.80	–	–	–
O=C(/C=C/c1c(C(=O)O)[nH]c2cc(Cl)ccc12)Nc1cccc(/C=C/c2ccc3ccc(Cl)cc3n2)c1	4.06	7.66	–	–	–
O=C(/C=C/c1c(C(=O)O)[nH]c2cc(Cl)cc(Cl)c12)OCc1ccccc1	< 4.00	< 4.00	–	–	–
O=C(/C=C/c1c[nH]c2cc(Cl)cc(Cl)c12)OCc1cccc(/C=C/c2ccc3ccc(Cl)cc3n2)c1	< 4.00	4.51	–	–	–
O=C(O)c1[nH]c2ccccc2c1C(=O)Nc1cccc(/C=C/c2ccc3ccc(Cl)cc3n2)c1	4.64	7.46	–	–	–
O=C(/C=C/c1c(C(=O)O)[nH]c2cc(Cl)cc(Cl)c12)OCc1cccc(/C=C/c2ccc3ccc(Cl)cc3n2)c1	< 4.00	6.18	50%	–	–
